EC50 data for 17 compounds are collected here from patent US7547804B2, “Compounds, compositions, and methods employing same” (Myriad Genetics, Inc., priority 2002, dated 2009).

pEC50: −log10 of the molar value.

One assay concerns LNCaP cell lines. Briefly: WST-1 Cell Proliferation and Viability Assay. The class given is cell-based. The following applies: Homo sapiens; LNCaP cells, compound incubation 18-72 hours. Put shortly:
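LNCaP cells (5000/well, phenol-red-free RPMI-1640 with 10% FCS) were plated overnight, then exposed to compounds in 0.1% DMSO final for 18-72 hours at 37 °C. Viability was read by WST-1 conversion to formazan after 3 h further incubation, measured at A490-A650.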
For orientation: Tetrazolium assays rely on reduction of a dye to a coloured formazan, in cell work by metabolically active cells.
As a reminder, the pEC50 is −log10 of the EC50, conventionally taken in molar units. `COc1ccccc1CCOc1cccc(NC(=O)c2cc(-c3cc4ccccc4s3)ccc2O)c1` [Compound 354] had a pEC50 of 5.14. Same read-out and setting: the same measure for `COc1ccccc1CCOc1cccc(NC(=O)c2cc(Cl)c(F)cc2O)c1` [Compound 355]: 4.82; for `COc1ccccc1CCOc1cccc(NC(=O)c2cc(-c3cccs3)ccc2O)c1` [Compound 356]: 4.80. `CN1CCN(c2ccc(NC(=O)c3cc(Cl)ccc3O)c(OCCc3cccc(C(F)(F)F)c3)c2)CC1` [Compound 358] had a negative-log EC50 (pEC50) of 4.79. The compound `COC(=O)[C@H]1CCCN1c1ccc(NC(=O)c2cc(Cl)ccc2O)c(OCCc2cccc(C(F)(F)F)c2)c1` [Compound 359] showed a pEC50 of 5.51. Still for that read-out and setting: in the case of `CCN(CC)c1ccc(NC(=O)c2cc(Cl)ccc2O)c(OCCc2cccc(C(F)(F)F)c2)c1` [Compound 360] it was 5.62; in that of `CCN(CC)CCN(CC)c1ccc(NC(=O)c2cc(Cl)ccc2O)c(OCCc2cccc(C(F)(F)F)c2)c1` [Compound 361], 5.10. The compound `O=C(Nc1ccc(NCCc2cccc(C(F)(F)F)c2)c(C(F)(F)F)c1)c1cc(Cl)ccc1O` [Compound 363] showed a pEC50 of 5.40. Regarding `CN(CCc1ccccn1)c1ccc(NC(=O)c2cc(Cl)ccc2O)cc1C(F)(F)F` [Compound 364], the pEC50 is 5.15. `COCCN(C)c1ccc(NC(=O)c2cc(Cl)ccc2O)cc1C(F)(F)F` [Compound 365] had a pEC50 of 5.70.

In turn, `COCCN(C)c1ccc(NC(=O)c2cc(Cl)ccc2O)c(OCCc2cccc(C(F)(F)F)c2)c1` [Compound 369] gave a pEC50 of 5.40. On the same count and under the same terms, in the case of `CN(CC(=O)OC(C)(C)C)c1ccc(NC(=O)c2cc(Cl)ccc2O)cc1C(F)(F)F` [Compound 372] it was 5.70. On the same count and under the same terms, in the case of `CN(CC(=O)OC(C)(C)C)c1ccc(NC(=O)c2cc(Cl)ccc2O)c(OCCc2cccc(C(F)(F)F)c2)c1` [Compound 373] it was 5.54.

In turn, `CN(CC(=O)O)c1ccc(NC(=O)c2cc(Cl)ccc2O)c(OCCc2cccc(C(F)(F)F)c2)c1` [Compound 375] showed a negative-log EC50 (pEC50) of 4.72. On the same count and under the same terms, the same measure for `CN(CCc1ccccn1)c1ccc(NC(=O)c2cc(Cl)ccc2O)c(OCCc2cccc(C(F)(F)F)c2)c1` [Compound 376]: 5.14; for `CCN(Cc1ccncc1)c1ccc(NC(=O)c2cc(Cl)ccc2O)c(OCCc2cccc(C(F)(F)F)c2)c1` [Compound 377]: 5.40.

The assay is the same for the next values; noted with them: Homo sapiens; LNCaP cells; flagged "Estimated": based on actual data at different concentrations.
For the compound `COc1ccccc1CCOc1cccc(NC(=O)c2cccc(F)c2O)c1` [Compound 353], the pEC50 is 4.60.
